One experiment has as its system Streptococcus agalactiae. Description: Growth of other bacteria and fungi. In kind it is cell-based.
In the next experiment the test system is Staphylococcus aureus. The experiment in a line: Growth of other bacteria and fungi. It counts as cell-based.
A further experiment has as its system occludin. The experiment in a line: Occludin in mouse colonic mucosa in vivo (immunoblot of NP-40-insoluble fraction). To be noted: listed as AMP peptide. Here is the method:
To look for a systemic effect of treatment with AMP peptide during the development of DSS colitis, body weight was measured. During the first 4 days of DSS administration, body weight changed little in peptide- or vehicle-treated mice. Then DSS was discontinued, the animals were given water to drink (day 0; FIG. 27, right panel), and measurements of weight were continued. […] To better understand how AMP peptide could exert these salutary effects on hematochezia and weight loss in DSS colitis, studies were performed to determine if observations in cultures of C2 cells were also relevant in vivo. Because DSS treatment appeared to injure barrier function in monolayer cultures of C2 cells, assessed as a decrease in TER (FIG. 22) and reduced occludin in the detergent-insoluble fraction (FIG. 36), a question was whether DSS might adversely affect the content of this TJ protein in vivo. Mice (n=10) were given DSS (3%) or water to drink. Four days later animals were killed, the contents of the colon lumen including blood were washed out, and the mucosa was inspected. The colonic epithelial surface of mice given DSS appeared largely intact with no obvious ulcerations or denuded areas. Surface cells of visibly intact mucosa were then collected by scraping with a glass slide. Occludin levels in the NP-40-insoluble fraction were assessed by immunoblotting. […]

Another experiment concerns Streptococcus pneumoniae. The experiment in a line: Growth of other bacteria and fungi. It counts as cell-based.
A further experiment concerns HeLa cells. Description: Growth of HeLa cells (non-GI control). To be noted: peptide up to 8 μg/ml. In kind it is cell-based, human. Here is the method:
To characterize the capacity of gastric and intestinal cells to respond to AMP-18, AGS gastric adenocarcinoma cells, HAE human gastric antrum mucosa primary cultures transformed with SV40 large T antigen, rat diploid small intestinal epithelial cells of the IEC-6 (FIG. 15) and IEC-18 lines, NCI N-87 gastric carcinoma cells, and SK-GT5 gastroesophageal adenocarcinoma cells were studied; human WI-38 fibroblasts and HeLa cells served as non-GI control cell lines. Mitogenesis was assayed by performing cell counts 3 to 4 days after exposing cells to the agent of interest, trypsinizing the culture to prepare single cells, and confirming this while counting them in a hemocytometer.

For a further experiment, the system named is Enterococcus faecalis. The experiment in a line: Growth of other bacteria and fungi. It counts as cell-based.
For another experiment, the system named is Helicobacter pylori. The experiment in a line: Growth inhibition on a bacterial lawn (filter diffusion). The following applies: solution on filter. It counts as cell-based. As for the experimental part:
To determine if AMP peptide inhibits growth of H. pylori, a lawn of bacteria was prepared on a culture dish. A small circular filter was placed in the center of the dish, a solution of a test agent was placed on the filter so it diffused onto the lawn, and its effect on bacterial growth around the filter was measured. AMP peptide 77-97 (SEQ ID NO: 12) (Table 1), a scrambled version of this AMP peptide (negative control) (SEQ ID NO: 19), or the antibiotic clarithromycin (positive control) was added to a filter on different cultures. […] In addition, AMP peptide could serve as a therapeutic agent to treat H. pylori infections in the stomach, and thereby prevent the capacity of this organism to cause gastritis, gastric ulcers, and gastric adenocarcinomas.

Experiment [1] deals with tyrosine phosphorylation, p38 MAP kinase, hsp25, JNK1/2, ERK1/2. The experiment in a line: Phosphorylation of signaling proteins in IEC-18 cells (immunoblot). It counts as cell-based, rat. Here is the method:
To find signaling molecules by which AMP peptide mediates its biological effects, it was asked if the peptide stimulates tyrosine phosphorylation in GI epithelial cells. IEC-18 cells were treated with AMP peptide for different periods of time, the cells were then lysed, the proteins extracted and separated on SDS-polyacrylamide gels, blotted, and the blot was probed with 4G10 anti-phosphotyrosine monoclonal antibody.
First the effect of AMP peptide on phosphorylation of p38 MAPK in IEC-18 cells was examined. After exposure to the peptide (8 μg/ml) for up to 2 hr, the cells were lysed, the proteins were extracted, and Western blot analysis was performed using anti-phospho-specific p38 antibody. Then the membrane was stripped and reprobed with anti-p38 antibody. […] Next, to see if AMP peptide stimulated phosphorylation of hsp25, a specific anti-phospho-hsp25 antibody (Affinity BioReagents) was used to probe a blot prepared using AMP peptide-treated IEC-18 cells as above.

The test system of experiment [2] is BSC-1 epithelial cell line. The experiment in a line: Growth (mitogenesis) assay on confluent BSC-1 cells, cells counted 4 days later. It counts as cell-based, monkey. The following applies: compared with related peptides. The source says: Finding that a 42-amino acid peptide representing a central region of the novel antrum mucosal cell protein AMP-18 had mitogenic activity similar in character to that of the intact protein in pig and mouse antrum extracts (Table 1), has facilitated the characterization of the bio-active region of the molecule. […] Growth activity determinations have so far been accomplished with the kidney epithelial cell line as well as several gastric and intestinal lines.
Non-transformed monkey kidney epithelial cell line BSC-1 and other epithelial cell lines were used to assess effects on growth. In general, conditions were chosen for each line such that cells are grown to confluence in plastic dishes in supplemented growth medium with minimal calf (or fetal) serum for growth (Lieske et al., 1997); BSC-1 cells become confluent at 10^6/60 mm dish with 1% calf serum. At the start of the growth assay the medium on the confluent culture was aspirated and replaced with fresh medium with minimal serum to maintain viability (0.01% for BSC-1) cells. AMP-18 preparations were added to the culture medium and 4 days later the cell monolayer was rinsed, detached with trypsin, and the cells were counted using a hemocytometer. Determination of the capacity of AMP-18 to initiate DNA synthesis was measured by the incorporation of [^3H]thymidine (Toback, 1980); to confirm the DNA synthesis assay, autoradiograms of leveled cells were counted (Kartha and Toback, 1985).

Experiment [3] has as its system occludin, ZO-1, ZO-2, claudin-5, E-cadherin, JAM. The experiment in a line: Accumulation of tight and adherens junction proteins in C2 cells (immunoblot of insoluble fraction, confocal microscopy). It counts as cell-based, human.
Another experiment concerns Pseudomonas aeruginosa. Description: Growth of other bacteria and fungi. In kind it is cell-based.
Another experiment relates to Acinetobacter baumanii. The experiment in a line: Growth of other bacteria and fungi. It counts as cell-based.

“Also recorded” adds a separate entry of the source.

Here are results for 1 sequence from patent US7629317B2, “Control of growth and repair of gastro-intestinal tissues by gastrokines and inhibitors” (The University of Chicago, priority 2001, dated 2009).

Consider “LDALVKEKKLQGKGPGGPPPK [97–117, peptide 77-97 of the mature protein, same as 97-117 of the human precursor]”, for which the “growth of Streptococcus agalactiae” value in the experiment with Streptococcus agalactiae was “did not alter the growth”. In the experiment with Staphylococcus aureus, the “growth of Staphylococcus aureus” value is “did not alter the growth”. In the experiment on occludin, the “amount of β-catenin in colonic mucosal epithelial cells” value is listed as “did not alter; also recorded: does not alter”. For the same sequence, the “growth of Streptococcus pneumoniae” value in the experiment on Streptococcus pneumoniae is given as “did not alter the growth”. In addition, the “growth stimulation of HeLa cells” value is “does not stimulate growth” with HeLa cells and “failure” in the experiment on HeLa cells (listed as AMP peptide). In addition, in the experiment with Enterococcus faecalis, the “growth of Enterococcus faecalis” value was “did not alter the growth”. In addition, the “growth of H. pylori lawn” value with Helicobacter pylori (listed as AMP peptide) is reported as “inhibited growth”; in the experiment on Helicobacter pylori (listed as AMP peptide 77-97), “inhibited”. Besides, the “phospho (P)-hsp25” value in experiment [1] (30 min) is on record as “stimulated the appearance”. Moreover, the “activation (phosphorylation) of JNK1/2 and ERK1/2” value in experiment [1] (JNKs after 10 min, ERKs at 20 min, listed as AMP peptide) is recorded as “rapidly activated”. Besides, the “total hsp25” value in experiment [1] (after 1 hr) was “increase”. Besides, the “total p38 MAPK” value in experiment [1] (peptide 8 μg/ml) is recorded as “no change”. Besides, the “p38 MAP kinase phosphorylation” value in experiment [1] (peptide 8 μg/ml, 30 min, listed as AMP peptide) is reported as “striking increase; also recorded: increased”. Moreover, the protein tyrosine phosphorylation result in experiment [1] (peptide 8 μg/ml, two min) is listed as “tyrosine phosphorylation of several proteins”. Besides, the “mitogenic activity (in words)” value in experiment [2] (listed as peptide 97-107) is “equal to the 42-mer”; in experiment [2] (listed as peptide 97-117) it was “enhanced activity”. In experiment [3] (DSS 4%, vehicle-treated declined about 50% at 1 hr, listed as AMP peptide), the “occludin immunoreactivity of peptide-treated cells exposed to DSS” value is reported as “did not decline; also recorded: not reduced”. Also, the “perijunctional actin, confocal microscopy” value in experiment [3] (oxidant (0.3 mM monochloramine) injury) is “protected”. Besides, the “occludin immunoreactivity at cell junctions, confocal microscopy” value in experiment [3] (pretreated prior to monochloramine 0.3 mM, vs untreated injured cells) is recorded as “more intense”. Further, the “growth of Pseudomonas aeruginosa” value in the experiment on Pseudomonas aeruginosa is reported as “did not alter the growth”. Besides, in the experiment with Acinetobacter baumanii, the “growth of Acinetobacter baumanii” value is reported as “did not alter the growth”.
